Test [1] has as its system fast axonal transport (FAT), anterograde (conventional kinesin-dependent) and retrograde (CDyn-dependent). Put plainly: Vesicle motility assays in isolated squid axoplasm perfused with SOD1 polypeptides. Type of test: cell-based. Conditions: polypeptides perfused at 5 μM; video-enhanced microscopy over 50 minutes. As to the method: Although the axonal compartment represents a critical pathogenic target in ALS, axon-specific effects of mutant SOD1 have not been previously addressed. […] However, it was not clear whether those defects resulted from pathogenic events in the neuronal cell body, or from alterations of cellular processes within the axonal compartment (Conforti, et al. (2007) Trends Neurosci. 30:159-66). Therefore, axon-autonomous effects of pathogenic SOD1 on FAT were evaluated using vesicle motility assays in isolated squid axoplasm, which lacks both nuclear and protein synthetic synthesis compartments. This experimental system allows for quantitative analysis of MBOs moving in both anterograde (conventional kinesin-dependent) and retrograde (cytoplasmic dynein-dependent) FAT rates. Further, the lack of plasma membrane in this preparation facilitates an evaluation of the effects of neuropathogenic proteins on FAT.
Highly purified (>95%), recombinant forms of wild-type SOD1 (WT-SOD1) and […] fALS-related SOD1 mutants (G93A-SOD1, G85R-SOD1, H46R and A4V-SOD1) were according to standard methods (Strange, et al. (2003) J. Mol. Biol. 328:877-891). Polypeptides were perfused at 5 μM concentration, and both anterograde (conventional kinesin-dependent) and retrograde (CDyn-dependent) FAT rates analyzed by video-enhanced microscopy over 50 minutes. Perfusion of wild type SOD1 (WT-SOD1) had no effect on either direction of FAT. […] Further, the presence of ATP (5 mM) in the perfusion buffer also ruled out mutant SOD1-induced deficits in ATP production.

Test [2] concerns inhibition of anterograde FAT by G93A-SOD1. In words: Co-perfusion of G93A-SOD1 with kinase inhibitors in squid axoplasm (vesicle motility assay). The class given is cell-based. The conditions noted are these: for prevention of the inhibition of anterograde FAT induced by G93A-SOD1: co-perfused with recombinant G93A-SOD1 in axoplasm. How it is done:
Increased phosphorylation of neurofilament indicated altered kinase activity with mutant SOD1 and kinases represent a major mechanism for the regulation of conventional kinesin (Donelan, et al. (2002) J. Biol. Chem. 277:24232-42; Morfini, et al. (2006) Nat. Neurosci. 9:907-16; Morfini, et al. (2002) EMBO J. 23:281-93; Morfini, et al. (2001) Dev. Neurosci. 23:364-76). Accordingly, it was determined whether specific protein kinases mediated the effect of mutant SOD1 on anterograde FAT. To this end, axoplasms were co-perfused with recombinant G93A-SOD1 and specific pharmacological or peptide inhibitors of protein kinases. Co-perfusion approaches have facilitated the identification of kinase-dependent pathogenic pathways in other models.
SB203580 is a highly specific pharmacological kinase inhibitor of the mitogen-activated protein kinase (MAPK) p38, and its specificity has been evaluated for more than 100 kinases (Fabian, et al. (2005) Nat. Biotechnol. 23:329-36).
In addition to the docking interactions of MAPKs with MKKs, substrates and regulators there are specific motifs that control the interactions of MKKKs and MKKs. A docking site termed DVD (domain for versatile docking) is found in several MKKs including MKK3 and MKK6, which are involved in p38 regulation. […] Observations of p38 activation in an ALS mouse model prompted the evaluation of the role of MKKs in mediating the inhibitory effect of mutant SOD1 on FAT. To this end, pharmacological inhibitors of MKKKs were co-perfused along with SOD1-G93A in squid axoplasm. The MLK-specific inhibitor CEP11004 (Ganguly, et al. (2004) J. Neurochem. 88(2):469) was ineffective, but co-perfusion of mutant SOD1 with DVD peptide prevented the effects of mutant SOD1 on FAT. The DVD site on MKKs is required for docking and activation by a subset of upstream MKKKs (ASK1, TAK1, etc.), and peptides based on this sequences prevents MAPK activation in cultured cells (Takekawa, et al. (2005) Mol. Cell. 18(3):295).

Test [3] has as its system KHC584 (first 584 amino acid residues of kinesin-1c). Put plainly: In vitro kinase assay of recombinant p38α with KHC584. The class given is biochemical. Conditions: sites mapped to Ser175 and Ser176 by LC/MS/MS. From the text:
Although p38α was implicated in mediating the inhibitory effect of pathogenic SOD1 on FAT, specific p38α targets relevant to these effects needed to be determined (Bendotti, et al. (2005) Neurodegener. Dis. 2:128-34). […] These precedents prompted the determination of whether p38α could directly phosphorylate kinesin-1 subunits of conventional kinesin.
Liquid chromatography tandem mass spectrometry (LC/MS/MS) was used to map KHC584 residues phosphorylated by p38α. To this end, in vitro phosphorylated KHC584 was directly digested with trypsin for LC/MS/MS analysis. Trypsin digest products were fractioned on a C18 HPLC connected to an on-line electrospray ion trap mass spectrometer. Peptide identification was done using SEQUEST algorithm. KHC584 identity was confirmed by identification of multiple kinesin-1C peptides. A peptide corresponding to amino acids 174-188 with unequivocal evidence of phosphorylation by p38α was identified based on spectrum analysis, cross correlation and delta correlation values. Tandem mass spectrometry analysis (MS/MS) by collision-induced dissociation further mapped phosphorylation on both Ser175 and Ser176, consistent with studies showing phosphorylation of Ser176 by the MAPK JNK3. Remarkably, serines 175 and 176 are conserved among squid, mouse and human kinesin-1s (FIG. 4). […]

For test [4], the system named is fast axonal transport (FAT). Put plainly: Vesicle motility assays in squid axoplasm perfused with recombinant active p38 isoforms. Type of test: cell-based. As to the method:
Four p38 genes exist in mammals (p38α, p38β, p38γ, and p38δ) (Kyriakis & Avruch (2001) Physiol. Rev. 81:807-69). The p38α and p38β kinases are major p38 isoforms within the nervous system (Lee, et al. (2000) J. Neurosci. Res. 60:623-31), as well as being the most prominent p38 isoforms expressed in motor neurons of the anterior horn spinal cord, the main cell type affected in ALS (Ackerley, et al. (2004) Mol. Cell. Neurosci. 26:354-64). The effect of specific p38 isoforms on FAT was evaluated using vesicle motility assays. The enzymatic activities of recombinant p38 isoforms were first normalized using in vitro kinase assays with ATF-2 as substrate.

In the next test the test system is JNK. In words: Immunoblot of sister axoplasms with activation-specific phosphoantibodies (JNK). The class given is cell-based, squid. The conditions noted are these: G93A-SOD1 vs WT-SOD1-perfused axoplasms. As to the method:
(§1) To refine this identification, activation of various p38 and other NF kinases were evaluated in “sister” axoplasms. […] Quantitative analysis of immunoblots indicated G93A-SOD1 induced approximately a 4-fold increase in p38 activity, compared to WT-SOD1 perfused of p38 (n=8).

In the next test the test system is ERK. Put plainly: Immunoblot of sister axoplasms with activation-specific phosphoantibodies (ERK). Type of test: cell-based, squid. The conditions noted are these: G93A-SOD1 vs WT-SOD1-perfused axoplasms. As to the method:
as §1

The next test relates to p38. Put plainly: Immunoblot of sister axoplasms with antibodies against phosphorylated, catalytically active p38. The class given is cell-based, squid. Conditions: compared to WT-SOD1-perfused axoplasm; n=8. How it is done:
as §1

In another test the test system is NF220 (neurofilament). In words: Metabolic labeling of isolated sister axoplasms with 32P-ATP, autoradiography/PHOSPHORIMAGER
The class given is cell-based, squid. The conditions noted are these: compared to WT-SOD1-perfused sister axon; 50-minute incubation; n=4; p≦0.0284. As to the method:
To determine whether mutant SOD1 could induce activation of axonal kinases, metabolic labeling experiments were performed in isolated axoplasms. These procedures helped evaluate effects of WT-SOD1 and G93-SOD1 polypeptides on the phosphorylation pattern of axonal proteins. Two axons from the same squid (“sister” axons) were dissected and extruded. One axon was perfused with WT-SOD1, whereas the contralateral “sister” axon was perfused with G93A-SOD1 in the presence of P^32-radiolabelled ATP. After a 50-minute incubation, axoplasms were lysed and analyzed by autoradiography. Neurofilament (NF) proteins represent the major phosphoproteins proteins in both squid axoplasm and mammalian axons. Consistent with this, increased phosphorylation of NFs represents a well-documented feature early in the course of ALS.

The next test has as its system GSK3. In words: Immunoblot of sister axoplasms with activation-specific phosphoantibodies (GSK3). Type of test: cell-based, squid. The conditions noted are these: G93A-SOD1 vs WT-SOD1-perfused axoplasms. How it is done: as §1
Test [5] deals with N2A cells stably transfected with G85R-SOD1. In words: Cell viability (LDH) assay, cells exposed to cyclosporine (CsA). Type of test: cell-based. The conditions noted are these: various concentrations of CsA, presence or absence of inhibitor. How it is done:
(§2) Multiple studies have documented activation of apoptotic mechanism in association with mutant SOD1 expression (Pasinelli, et al. (2004) Neuron 43:19-30). […] To evaluate the role of p38 in this process, cell viability (LDH) and caspase activity assays were performed using N2A cells stably transfected with WT-SOD1 or G85R-SOD1 constructs. […] N2A cells were exposed to various concentrations of CsA in the presence or absence of the p38 inhibitor SB203580.

Test [6] shares this test system. In words: Caspase-3 activity assay, cells exposed to cyclosporine (CsA). Conditions: various concentrations of CsA, presence or absence of inhibitor. The class given is cell-based. As to the method:
as §2

The values below come from patent US20100227793A1, “Compositions and Methods for Treating Amyotrophic Lateral Sclerosis” (priority 2009, published 2010).

Entries after “also recorded” stand apart in the source; their conditions may differ.

For the molecule “WT-SOD1: highly purified recombinant wild-type SOD1”, in [1], the “effect on anterograde FAT rate” value is recorded as “no effect” and the “effect on retrograde FAT rate” value is recorded as “no effect”.
For CEP11004, in [2], the “prevention of the inhibition of anterograde FAT induced by G93A-SOD1” value is reported as “ineffective”.
Regarding p38α: recombinant active p38 isoform α, the “phosphorylation of KHC584” value in test [3] is on record as “phosphorylated”. Moreover, the “effect on FAT” value in [4] (perfused at 10 nM) is given as “most closely mimicked; also recorded: selective inhibition of anterograde FAT”.
As to “G93A-SOD1: recombinant fALS-related SOD1 mutant G93A”, the “change in JNK activity” value with JNK is listed as “did not reveal changes”. Further, the “change in ERK activity” value in the test on ERK is recorded as “did not reveal changes”. In addition, the “effect on anterograde FAT rate” value in test [1] is listed as “selectively inhibited”. Further, in the test on p38, the “increase in p38 activity (p-p38 immunoblot)” value is given as around 4 fold. Also, the “increase in overall NF220 phosphorylation” value in the test on NF220 (neurofilament) amounted to 2 fold. Also, in the test with GSK3, the “change in GSK3 activity” value is recorded as “did not reveal changes”.
Regarding `C[S+]([O-])c1ccc(-c2nc(-c3ccncc3)c(-c3ccc(F)cc3)[nH]2)cc1` (stereo not shown) [SB203580], in test [5], the “attenuation of cell death (LDH)” value is listed as “significant attenuation”. Besides, the “attenuation of caspase activation (caspase-3 activity)” value in test [6] is given as “significant attenuation”. Moreover, in [2] (co-perfused with G93A-SOD1, FIG. 2), the “anterograde FAT rates compared with WT-SOD1-perfused axoplasm” value was “undistinguishable”. The “prevention of the inhibition of anterograde FAT induced by G93A-SOD1” value in test [2] is reported as “protective effects; also recorded: completely prevented”.

B1: p3813: recombinant active p38 isoform β (misprinted) (protein, UniProt Q15759 1-364, looked up)
Mitogen-activated protein …: MSGPRAGFYRQELNKTVWEVPQRLQGLRPVGSGAYGSVCSAYDARLRQKVAVKKLSRPFQSLIHARRTYRELRLLKHLKHENVIGLLDVFTPATSIEDFSEVYLVTTLMGADLNNIVKCQALSDEHVQFLVYQLLRGLKYIHSAGIIHRDLKPSNVAVNEDCELRILDFGLARQADEEMTGYVATRWYRAPEIMLNWMHYNQTVDIWSVGCIMAELLQGKALFPGSDYIDQLKRIMEVVGTPSPEVLAKISSEHARTYIQSLPPMPQKDLSSIFRGANPLAIDLLGRMLVLDSDQRVSAAEALAHAYFSQYHDPEDEPEAEPYDESVEAKERTLEEWKELTYQEVLSFKPPEPPKPPGSLEIEQ
With B1, in test [4] (perfused at 50 nM), the “effect on FAT” value was “inhibited both anterograde and retrograde FAT”.

B2: p38δ: recombinant active p38 isoform δ (protein, UniProt O15264 1-365, looked up)
Mitogen-activated protein …: MSLIRKKGFYKQDVNKTAWELPKTYVSPTHVGSGAYGSVCSAIDKRSGEKVAIKKLSRPFQSEIFAKRAYRELLLLKHMQHENVIGLLDVFTPASSLRNFYDFYLVMPFMQTDLQKIMGMEFSEEKIQYLVYQMLKGLKYIHSAGVVHRDLKPGNLAVNEDCELKILDFGLARHADAEMTGYVVTRWYRAPEVILSWMHYNQTVDIWSVGCIMAEMLTGKTLFKGKDYLDQLTQILKVTGVPGTEFVQKLNDKAAKSYIQSLPQTPRKDFTQLFPRASPQAADLLEKMLELDVDKRLTAAQALTHPFFEPFRDPEEETEAQQPFDDSLEHEKLTVDEWKQHIYKEIVNFSPIARKDSRRRSGMKL
As to B2, the “effect on FAT” value in test [4] (perfused at 50 nM) is reported as “no effect”; in test [4] (perfused at 50 nM, listed as p385) it was “did not affect FAT”.

B3: p38γ: recombinant active p38 isoform γ (protein, UniProt P53778 1-367, looked up)
Mitogen-activated protein …: MSSPPPARSGFYRQEVTKTAWEVRAVYRDLQPVGSGAYGAVCSAVDGRTGAKVAIKKLYRPFQSELFAKRAYRELRLLKHMRHENVIGLLDVFTPDETLDDFTDFYLVMPFMGTDLGKLMKHEKLGEDRIQFLVYQMLKGLRYIHAAGIIHRDLKPGNLAVNEDCELKILDFGLARQADSEMTGYVVTRWYRAPEVILNWMRYTQTVDIWSVGCIMAEMITGKTLFKGSDHLDQLKEIMKVTGTPPAEFVQRLQSDEAKNYMKGLPELEKKDFASILTNASPLAVNLLEKMLVLDAEQRVTAGEALAHPYFESLHDTEDEPQVQKYDDSFDDVDRTLDEWKRVTYKEVLSFKPPRQLGARVSKETPL
For B3, the “effect on FAT” value in test [4] (perfused at 100 nM) is on record as “lesser extent; also recorded: more modest effect”.
